Source: patent US20260078114A1, “COMPOUND USED AS INHIBITOR OF CDK4 KINASE AND USE THEREOF” (TYK MEDICINES, INC., priority 2022, published 2026)

What was measured:
[1] = tested on: human mantle cell lymphoma cell JEKO-1; assay: Cellular antiproliferative assay (MTT, 5 days), JEKO-1; type: cell-based; conditions: Homo sapiens, 120 h, JEKO-1 cells, 5 days incubation
In short: (§1)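 MTT read-out at 570 nm after 3 h MTT incubation and isopropanol/HCl/NP-40 solubilisation; cells seeded at 50,000 cells/ml in DMEM with 10% FBS, 37 °C, 5% CO2, compound exposure 5 days. Viability calculated relative to 0.1% DMSO control and blank medium.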

[2] = tested on: Human breast cancer cell MCF-7; assay: Cellular antiproliferative assay (MTT, 5 days), MCF-7; type: cell-based; conditions: Homo sapiens, MCF7, 120 h, MCF-7 cells, 5 days incubation
In short: as §1

[3] = tested on: ovarian cancer cell A2780; assay: Cellular antiproliferative assay (MTT, 5 days), A2780; type: cell-based, human; conditions: Homo sapiens, 120 h, A2780 cells, 5 days incubation
In short: as §1

[4] = Preclinical rat pharmacokinetic test; type: in vivo; conditions: male SD rats, gavage (p.o.), 10 mg/kg, plasma
Description: Healthy adult SD rats, male, 6-8 weeks old, weighing 200-300 g. EDTA-Na2 anticoagulant. Analytical balance, animal weight scale, magnetic stirrer, freezing centrifuge, single-channel manual pipette. About 10 mg of the sample to be tested was precisely weighed, the converted 5% DMSO was added to dissolve, and then 10 percent solutol HS-15 and 85% saline were added, ultrasonic treatment was performed, vortex mixed, to obtain the solution having a concentration of 1 mg/mL; freshly prepared before use. Animals were kept in rat cages and fasted (not less than 10 h) the day before the test, but not water fasted; on the day of the test, they were weighed and labeled at the tail. Blank blood was collected before drug administration. Blood was collected from the tail vein. • Route of administration: gavage (p.o.). • Dose: 10 mg/kg • Administration volume: 10 mL/kg • Operation procedure: Hold the rat with the left hand with anti-biting gloves, made it stand upright, extent the 16-gauge gavage needle from the throat in the mouth, and then injected the drug into the stomach when there was no obvious resistance. Before and 0.5 […] and 24 h after the administration of the drug, 0.1 ml of whole blood from the test animal was collected in EDTA-Na2 anticoagulant tubes, which was mixed upside down for 3-4 times and then centrifuged at 10,000 g for 5 min at 4° C. to isolate the plasma, which was stored at -80° C. for testing. Blood was collected from the tail vein. […] Pipetted 25 μL of rat blank plasma in a centrifuge tube respectively, added 25 μL of prepared standard series solution (prepared in methanol), then added 200 μL of internal standard solution (prepared in methanol), vortexed and mixed for 2 min, centrifuged at 4° C., 10,000 g for 10 min. Unknown plasma samples treatment: 25 μL of rat plasma containing drug was aspirated, 25 μL of methanol and 200 μL of internal standard solution were added sequentially, vortexed and mixed for 2 min, and then centrifuged at 4° C. and 10,000 g for 10 min. The supernatant was extracted for LC/MS/MS detection. Shimadzu liquid phase and Triple Quad TM 6500+AB mass spectrometry were utilized to establish a quantitative assay for the compounds to be tested. The pro-drug concentration in plasma was determined. The blood drug concentration-time curves were plotted, and the main pharmacokinetic parameters were calculated using the non-compartment model in winnonlin Phoenix software, and the detailed data were shown in Table 3.

SMILES: C[C@H]1CCN(C)c2nc3c(F)cc(-c4nc(N[C@@H]5CCOC[C@H]5O)ncc4Cl)cc3n21 [TB-92, (3S,4R)-4-((5-chloro-4-((S)-9-fluoro-1,4-dimethyl-1,2,3,4-tetrahydrobenzo[4,5]imidazo[1,2-a]pyrimidin-7-yl)pyrimidin-2-yl)amino)tetrahydro-2H-pyran-3-ol]
- IC50 [1]: ≤ 500 nM
- IC50 [2]: ≤ 500 nM
- IC50 [3]: ≤ 500 nM
- HL— [4]: 1.21 h
